Measurements taken from US11691960B2, “2-[thiophen-2-yl)formamido]-N-(phenyl)-2-methylpropanamide derivatives and the use thereof as medicament” (Boehringer Ingelheim International GmbH, priority 2020, dated 2023).

Assays:
human hepatocytes = experiment: Assay D: metabolic stability in human hepatocytes; type: in vitro ADME
Protocol: Assay D. Assessment of Metabolic Stability in Human Hepatocytes
The metabolic degradation of the test compound is assayed in a hepatocyte suspension. After recovery from cryopreservation, human hepatocytes are incubated in Dulbecco's modified eagle medium supplemented with 3.5 μg glucagon/500 mL, 2.5 mg insulin/500 mL and 3.75 mg/500 mL hydrocortisone) containing 5% or 50% human serum or in absence of serum.
Following a 30 min preincubation in a cell culture incubator (37° C., 10% CO2), 5 μl of test compound solution (80 μM; derived from a 2 mM DMSO stock solution by dilution 1:25 with medium) are added into 395 μl hepatocyte suspension, resulting in a final cell density of 1 Mio cells/mL, a final test compound concentration of 1 μM, and a final DMSO concentration of 0.05%.
The cells are incubated for six hours (incubator, orbital shaker) and samples (25 μl) are removed from the incubation after 0, 0.5, 1, 2, 4 and 6 hours. Samples are transferred into acetonitrile and pelleted by centrifugation (5 min). The supernatant is transferred to a new 96-deepwell plate, evaporated under nitrogen and resuspended prior to analysis of decline of parent compound by HPLC-MS/MS.
CLint is calculated as follows: CL_INTRINSIC=k/CD×1000/60 k: slope of the regression line for parent decline [h^−1], CD: cell density of vital cells [10e6 cells/mL],
The calculated in vitro hepatic intrinsic clearance is scaled up to the intrinsic in vivo hepatic Clearance and used to predict hepatic in vivo blood clearance (CL) by the use of a liver model (well stirred model): CL_INTRINSIC_INVIVO [ml/min/kg]=(CL_INTRINSIC [μL/min/10e6 cells]×hepatocellularity [10e6 cells/g liver]×liver factor [g/kg bodyweight])/1000 CL[ml/min/kg]=CL_INTRINSIC_INVIVO [ml/min/kg]×hepatic blood flow [ml/min/kg]/(CL_INTRINSIC_INVIVO[ml/min/kg]+hepatic blood flow [ml/min/kg])
Results are expressed as percentage of hepatic blood flow: QH[%]=CL[ml/min/kg]/hepatic blood flow [ml/min/kg])
Hepatocellularity, human: 120×10e6 cells/g liver
Liver factor, human: 25.7 g/kg bodyweight
Blood flow, human: 20.7 ml/(min×kg)

[1] = Assay F: tissue distribution in rat after oral application; type: in vivo
Description: (§1) In order to estimate the amount of administered drug to enter the brain, the brain to plasma ratio is used as surrogate parameter. As efflux transporters (e.g. P-gp) are located at the blood-brain barrier, compounds acting as substrates will be actively transported out of the brain. As these efflux transporters are not expressed in muscle tissue, the relative distribution ratio of compound between muscle and brain tissue can be used as indication for an efflux in vivo in rats or mice. In case there is no in vivo efflux detectable (in rats/mice) and in case there is no efflux in vitro (MDCK-MDR1 (P-gp)), a brain exposure in patients can be expected [see Table 7 for comparison of in vitro efflux data (MDCK-MDR1 assay) and in vivo efflux data (tissue distribution in rat/mouse after oral application)].
(§2) Assay F. Determination of Tissue Distribution in Rat/Mouse After Oral Application of Compounds
Male Han Wistar rats or C57BL/6NRj mice were orally dosed with 10 μmol/kg of compound to be investigated, suspended in 0.5% Natrosol/0.015% Tween80. Blood was collected in K3EDTA containing vials from the sublingual vein in short time Isoflurane anesthesia in rat or from the saphenous vein in conscious mice at […], 0.25, 0.5, 1, 2, 3, 4, 8 and 24 hours post administration. Subsequently, plasma was prepared by centrifugation for 5 min at 5000 rpm and stored at −20° C.
Tissues and CSF were sampled in anaesthetized animals. CSF was collected from the cisterna magna. Following exsanguination a femoral muscle sample was collected. Cranium and the dura matter were removed and the complete brain was collected. Before transfer of the muscle and brain sample to pre-weight homogenization devices (Precellys®) the tissues were rinsed with saline and blotted dry.
For homogenization, four parts (v/w) homogenization buffer (37.5% acetonitrile, 37.5% methanol, 25% water) were added. Tissues were homogenized with a Precellys® Evolution homogenizer. Five μL of the homogenate were added to 70 μL of a 1 to 1 (v/v) mixture of acetonitrile and methanol and frozen for at least 10 min at −18° C.
For final sample preparation, the sample was centrifuged at 4000 rpm for 1 min, and an aliquot of the resulting supernatant (30 μL) was mixed with 170 μL formic acid prior to injection to LC-MS. Calibration curves were prepared accordingly in rat and mouse plasma, respectively. All animal care and experimental procedures at Boehringer Ingelheim were conducted in compliance with the German and European Animal Welfare Act (EU Directive 2010/63/EU) and were approved by the Regierungspräsidium Tübingen as the responsible local German authority (reference number 35/9185.81-8/14-009-G).

[2] = Assay F: tissue distribution in mouse after oral application; type: in vivo
Description: as §1, §2
Male Han Wistar rats or C57BL/6NRj mice were orally dosed with 10 μmol/kg of compound to be investigated, suspended in 0.5% Natrosol/0.015% Tween80. Blood was collected in K3EDTA containing vials from the sublingual vein in short time Isoflurane anesthesia in rat or from the saphenous vein in conscious mice at […], 0.25, 0.5, 1, 2, 3, 4, 8 and 24 hours post administration. Subsequently, plasma was prepared by centrifugation for 5 min at 5000 rpm and stored at −20° C. […]

[3] = oral 10 μmol/kg, muscle/brain tissue distribution

SMILES: CC(C)(NC(=O)c1ccc(Cl)s1)C(=O)Nc1ccc(Br)cc1 [Example 4, 2-[(5-chlorothiophen-2-yl)formamido]-N-(4-bromophenyl)-2-methylpropanamide]
- metabolic stability in human hepatocytes (in words) (human hepatocytes): metabolically stable
- in vivo efflux (in words) ([1]; after oral application): neither in vitro nor in vivo efflux
- in vivo efflux (Assay F) [1, 3]: 0.50 (rat)

SMILES: CC(C)(NC(=O)c1ccc(Cl)s1)C(=O)Nc1ccc(Cl)c(F)c1 [Example 3, 2-[(5-chlorothiophen-2-yl)formamido]-N-(4-chloro-3-fluorophenyl)-2-methylpropanamide]
- metabolic stability in human hepatocytes (in words) (human hepatocytes): metabolically stable
- in vivo efflux (in words) ([2]; after oral application): neither in vitro nor in vivo efflux
- in vivo efflux (Assay F) [2, 3]: 0.60 (mouse)
